US10286038B2, “Lysosome membrane protein 2 (LIMP-2) based peptides and related uses” (Northwestern University, priority 2016, dated 2019)

Tests used:
[1] = biological target: T1, recombinant GC (Cerezyme) (Homo sapiens, UniProt P04062, R534H); assay: recombinant GC activity assay; assay type: biochemical; conditions: tenfold molar excess of peptide, acid pH, relative to buffer control
T1 construct: purchased Genzyme Therapeutics, Boston, USA
T1 sequence (P04062 40-536 R534H): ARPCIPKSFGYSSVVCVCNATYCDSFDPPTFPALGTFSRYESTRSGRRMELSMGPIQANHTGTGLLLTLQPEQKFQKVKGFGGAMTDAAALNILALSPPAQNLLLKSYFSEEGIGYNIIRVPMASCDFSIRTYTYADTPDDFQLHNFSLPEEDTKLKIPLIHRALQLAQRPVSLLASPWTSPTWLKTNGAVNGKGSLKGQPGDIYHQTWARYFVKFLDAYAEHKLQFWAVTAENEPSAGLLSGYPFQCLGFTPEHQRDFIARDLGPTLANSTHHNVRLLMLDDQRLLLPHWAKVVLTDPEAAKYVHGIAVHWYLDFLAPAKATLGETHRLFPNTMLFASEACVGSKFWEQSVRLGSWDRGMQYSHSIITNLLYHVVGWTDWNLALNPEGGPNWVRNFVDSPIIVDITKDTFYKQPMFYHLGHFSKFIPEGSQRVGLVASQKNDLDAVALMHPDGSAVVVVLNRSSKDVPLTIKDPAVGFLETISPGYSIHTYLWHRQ
Method: (§1) Expression plasmids of LIMP-2 and human GC constructs were generated as described previously (1). For Western blotting nitrocellulose or PVDF membranes were used. EndoH/PNGaseF digests were performed according to manufacturer's instructions (New England Biolabs, Ipswich, USA). For co-immunoprecipitation experiments magnetic agarose G beads (Thermo Fisher Scientific, Waltham, USA) were utilized. Immunofluorescence studies were performed in cells as previously described (1, 3). Cellular co-localization of two proteins was determined by the Pearson's Index (35). Enzyme activity assays of cell lysates or recombinant protein were measured at acid pH using absorbent and fluorescent artificial substrates. For peptide studies, peptides were N-terminally tagged with biotin. If not stated otherwise, recombinant enzyme was incubated with a tenfold higher molarity of peptides. Conditions for pulldown experiments were kept at neutral pH. Protein modelling, molecular analyses, graphics and animations were performed with the UCSF Chimera package.
To determine the enzymatic activity of the recombinant enzymes, lyophilized enzymes were reconstituted in the NaPi buffer described above. The lyophilized samples of wild-type GC (Cerezyme®) and the custom-made recombinant N307S mutant enzyme contain 0.01% polysorbate 80 (Tween 80) (see prescription information for Cerezyme® at the website for Cerezyme®). As indicated in our experiments, the concentration of the detergent is sufficient to support active GC enzyme and to perform the in vitro GC activity assays without adding further detergents to the reaction mix. For enzyme activity assays of recombinant proteins, 0.1-0.2 nmol of GC (Cerezyme®; N370S) and LAMAN were used in the absence or presence of 10× the molar amount of LIMP-2-derived peptides (Table 1) or LIMP-2 ectodomain (1-2 nmol) (Table 3).
All activity assays were performed at acid pH.

[2] = biological target: T1, recombinant GC (Cerezyme); assay: peptide pulldown of recombinant GC; assay type: binding; conditions: biotinylated peptide, tenfold molar amount, neutral pH, streptavidin beads
Method: as §1
All peptides were purchased from jpt Peptide Technologies (Berlin, GER). […] The concentration of the peptides as well as the recombinant proteins was determined spectroscopically (Nanodrop 2000c; Thermo Fisher Scientific, Waltham, USA). […]

[3] = biological target: T2, recombinant GC (Homo sapiens, UniProt P04062, R534H); assay: stabilization assay of recombinant GC at 37° C.; assay type: biochemical; conditions: recombinant GC incubated with peptide at 37° C.
T2 construct: purchased Genzyme Therapeutics, Boston, USA
T2 sequence (P04062 40-536 R534H): T1 sequence (P04062 40-536 R534H)
Method: Proteins were visualized by coomassie staining (CBB). […] See also FIG. 6.
To address the functional impact of the observed interaction between the helix 5 peptide and recombinant GC, we measured GC activity in the presence of a one- to tenfold molar excess of the helix 5 peptide. […] No effect on enzymatic activity after incubation with the helix 5 peptide or the LIMP-2 ectodomain could be found for recombinant α-mannosidase (LAMAN) further emphasizing the specificity of the helix 5 peptide on GC activity (FIG. 6E). […] To analyze if the increase in GC activity is due to stabilization of the enzyme, recombinant GC was incubated with the helix 5 and the control peptide at 37° C. and the activity of GC was measured at regular intervals (FIG. 3F).

[4] = system: endogenous GC in Cos 7 cells; conditions: biotinylated peptide, neutral pH
Method: For pulldown of endogenous and overexpressed GC from N2a cell lysates 20 nmol of LIMP-2-derived peptide (Helix 5 and 3×D) was incubated with 50 μl cell lysate at 4° C. overnight. The cells were harvested in EBC-buffer (Table 3). After blocking and equilibration of the streptavidin beads (see above) the cell lysate/peptide mixtures were added to the beads for 30 min. at room temperature. The supernatant was removed. After extensive washing of the beads with NaPhosphate buffer, the bound peptides and proteins were released from the beads by incubation with Laemmli buffer (see above). After centrifugation for 2 min. at 17,000×g the supernatant was removed (BOUND fraction) and subjected to SDS-Page and Western-blotting. An antibody against human GC (α-hGC, for details see Table 4) was used for detection.

Row | Substance | increase of recombinant GC enzyme activity [1] | co-precipitation of recombinant GC [2] | time to complete loss of GC enzymatic activity [3] [h] | co-precipitation of endogenous GC from cellular lysates [4]
1 | Biotin-Ttds-KFERQLREDDEAMDKAYQQKLFVTHTVDEYGRKKRRQRRR [control 3×D TAT-peptide, reference compound] | comparable effect | – | – | –
2 | KRVQDVIERFWDFIDQLSINTFGK [random helical control peptide, reference compound] | not able to increase | – | – | –
3 | Biotin-Ttds-LREDDEAMDKAYQQKLFVTHTVDE [3×D control peptide, reference compound] | did not increase | only the wild-type helix 5 peptide specifically co-precipitated | ≤ 72 | only the wild-type helix 5 peptide specifically co-precipitated
